Assay results reported in patent US9827236B2, “Method of inhibiting the glycation of nutrient and endogenous proteins and peroxidation of nutrient and endogenous lipids” (priority 2014, dated 2017).

Key:
[1] = tested on: nutrient protein (lysine) in the presence of reducing sugars; test: Inhibition of nutrient protein glycation, in vitro, absorbance by spectrophotometer
Experimental: Percentage inhibition was determined using an in vitro experiment. Lysine was used to simulate the nutrient protein.
In one embodiment of the present application, glycation is induced in the nutrient proteins by combining them with different types of sugars and thermally processing the combination at various temperatures and with various levels of alkalinity. The processing is repeated by adding the identified glycation inhibitor. The nutrient protein in this case could be lysine or any other nutrient protein in liquid, semisolid or solid form.
(§1) The effectiveness of the inhibiting agents and their combinations were ascertained using a series of in vitro experiments with nutrient lysine or collage protein, various sugars, natural polyunsaturated fatty acids and monounsaturated fatty acids and natural, pure form of inhibiting agents in extract forms. Absorbance values, measured using a spectrophotometer, were used to determine and compare formation of glycated proteins. Industry standard iodometric titration was used to determine and compare peroxidation levels in lipids.
(§2) In the case of inhibition of nutrient protein glycation and nutrient lipid peroxidation for disease prevention, it is recommended that the amount of inhibiting agent to be combined with the nutrient protein or nutrient lipid be as shown in the Table 1. Further, a combination of such inhibiting agents could be applied to increase the effectiveness of inhibition.

[2] = tested on: nutrient lipid (PUFA, MUFA) peroxidation; test: Inhibition of nutrient lipid peroxidation, in vitro, iodometric titration
Experimental: Percentage inhibition was determined using an in vitro experiment. Olive oil, a polyunsaturated fatty acid (PUFA) and safflower oil, a monounsaturated fatty acid (MUFA) were used to simulate nutrient lipids.
In another embodiment, peroxidation is induced in nutrient lipids by thermally processing them at various temperatures and with various levels of alkalinity. The processing is repeated by adding the identified peroxidation inhibitor. The nutrient lipid in this case could be polyunsaturated fatty acid or monounsaturated fatty acid in liquid, semisolid or solid form.
as §1, §2

[3] = tested on: nutrient protein (lysine); test: Effect of pH variation on protein glycation, in vitro, spectrophotometer; details: for % decrease om AGE formation with decreasing pH: protein glycation
Text: (§3) In one embodiment of the present application, glycation is induced in the nutrient proteins by combining them with different types of sugars and thermally processing the combination at various temperatures and with various levels of alkalinity. The processing is repeated by adding the identified glycation inhibitor. The nutrient protein in this case could be lysine or any other nutrient protein in liquid, semisolid or solid form. In the context of this invention, thermal processing implies heating the food at various temperatures using any method of cooking such as baking, roasting, frying, boiling, etc. […] The effectiveness of the inhibiting agents and their combinations were ascertained using a series of in vitro experiments with nutrient lysine or collage protein, various sugars, natural polyunsaturated fatty acids and monounsaturated fatty acids and natural, pure form of inhibiting agents in extract forms. Absorbance values, measured using a spectrophotometer, were used to determine and compare formation of glycated proteins. Industry standard iodometric titration was used to determine and compare peroxidation levels in lipids.

[4] = tested on: nutrient protein (lysine); test: Effect of temperature on protein glycation, in vitro, spectrophotometer; details: for % decrease in AGE formation from 100 to 60 deg C.: protein glycation
Text: as §3

Molecule | Concentration needed for 50% inhibition, Protein Glycation [1] [%] | Concentration needed for 50% inhibition, Lipid Peroxidation [2] [%] | Absorbance at different pH values ([3]; pH 8) | Absorbance at different pH values ([3]; pH 10) | Absorbance at different pH values ([3]; ph 4) | % decrease om AGE formation with decreasing pH [3] [%] | Absorbance at different temperatures ([4]; 60 deg C.) | Absorbance at different temperatures ([4]; 80 deg C.) | Absorbance at different temperatures ([4]; 100 deg C.) | % decrease in AGE formation from 100 to 60 deg C. [4] [%]
Oc1ccc(C=Cc2cc(O)cc(O)c2)cc1 [Phenol (Resveratrol), Resveratrol] | 10 | 8 |  |  |  |  |  |  |  | 
O=C(CO)[C@@H](O)[C@H](O)[C@H](O)CO [Fructose] |  |  | 0.5 | 0.65 | 0.07 | 89.4 | 0.1 | 0.37 | 0.5 | 79.1
Tocopherol [Antioxidant (Tocopherol)] | 17 | 15 |  |  |  |  |  |  |  | 
O=C(O[C@@H]1Cc2c(O)cc(O)cc2O[C@@H]1c1cc(O)c(O)c(O)c1)c1cc(O)c(O)c(O)c1 [Catechin (EGCG), EGCG] | 13 | 9 |  |  |  |  |  |  |  | 
OC[C@H]1O[C@H](O[C@H]2[C@H](O)[C@@H](O)[C@H](O)O[C@@H]2CO)[C@H](O)[C@@H](O)[C@@H]1O [Maltose] |  |  | 0.22 | 0.26 | 0.04 | 84.4 | 0.04 | 0.22 | 0.22 | 80.0
O=C1O[C@H]([C@@H](O)CO)C(O)=C1O [Antioxidant (Ascorbic Acid), Ascorbic Acid] | 7 | 11 |  |  |  |  |  |  |  | 
NC(=O)c1cccnc1 [Antioxidant (Niacinamide), Niacinamide] | 15 | 13 |  |  |  |  |  |  |  | 
NCCC(=O)N[C@@H](Cc1cnc[nH]1)C(=O)O [Chelating agent (Carnosine), Carnosine] | 16 | 12 |  |  |  |  |  |  |  | 
O=C[C@H](O)[C@H](O)[C@H](O)CO [Ribose] |  |  | 0.59 | 0.79 | 0.09 | 88.4 | 0.13 | 0.52 | 0.59 | 78.1
OC[C@H]1O[C@@H](O[C@H]2[C@H](O)[C@@H](O)C(O)O[C@@H]2CO)[C@H](O)[C@@H](O)[C@H]1O (some centres unmarked) [Lactose] |  |  | 0.17 | 0.22 | 0.02 | 90.8 | 0.06 | 0.18 | 0.17 | 67.9
